Test results as given in ChEMBL document CHEMBL1201862, “PubChem BioAssay data set” (2004).
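Each compound was tested at five concentrations against cells in 96-well plates for 48 hours. GI50: concentration for 50% inhibition of growth.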 Active and inactive are the calls of the source. Rule as the data show it: active = GI50 up to about 1.1 µM and inactive = higher.

Tests used:
Assay in all cases: inhibition of tumour cell growth, NCI panel, 48 h
SF-295 = test system: SF-295
A549 = test system: A549
PC-3 = test system: PC-3
SNB-19 = test system: SNB-19
OVCAR-4 = test system: OVCAR-4
RPMI-8226 = test system: RPMI-8226
SK-MEL-28 = test system: SK-MEL-28
HCT-116 = test system: HCT-116
BT-549 = test system: BT-549
SW-620 = test system: SW-620
UO-31 = test system: UO-31
Malme-3M = test system: Malme-3M
SN12C = test system: SN12C
HT-29 = test system: HT-29
MDA-MB-231 = test system: MDA-MB-231
SK-MEL-2 = test system: SK-MEL-2
IGROV-1 = test system: IGROV-1
HCC 2998 = test system: HCC 2998
K562 = test system: K562
SR = test system: SR

Measured: GI50

Nc1ccc2[nH]cc(CCC(=O)O)c2c1
inactive: SF-295 > 100 µM | A549 > 100 µM | PC-3 > 100 µM | SNB-19 > 100 µM | OVCAR-4 > 100 µM | RPMI-8226 > 100 µM | SK-MEL-28 > 100 µM | HCT-116 > 100 µM | BT-549 > 100 µM | SW-620 88.1 µM | UO-31 > 100 µM | Malme-3M 28.8 µM | SN12C > 100 µM | HT-29 > 100 µM | MDA-MB-231 > 100 µM | SK-MEL-2 > 100 µM | IGROV-1 > 100 µM

Cc1n2nc(N)sc2n[n+]1CC(=O)c1ccccc1
inactive: HCC 2998 > 100 µM | SF-295 > 100 µM | K562 > 100 µM | A549 > 100 µM | PC-3 > 100 µM | SNB-19 > 100 µM | OVCAR-4 > 100 µM | RPMI-8226 > 100 µM | SK-MEL-28 > 100 µM | HCT-116 > 100 µM | BT-549 > 100 µM | SW-620 > 100 µM | UO-31 > 100 µM | Malme-3M > 100 µM | SN12C > 100 µM | HT-29 > 100 µM | SK-MEL-2 > 100 µM | IGROV-1 > 100 µM

O=C(OCc1ccccc1CN1CCOCC1)c1cccc(Br)c1
inactive: HCC 2998 28.3 µM | K562 6.3 µM | A549 28.7 µM | PC-3 37.2 µM | SNB-19 93.1 µM | OVCAR-4 20.9 µM | SK-MEL-28 33.1 µM | HCT-116 32.9 µM | BT-549 52.6 µM | SW-620 53.6 µM | UO-31 62.2 µM | Malme-3M 21.7 µM | SN12C 39.3 µM | HT-29 16 µM | MDA-MB-231 33.7 µM | SK-MEL-2 22.3 µM | IGROV-1 19.7 µM

CN1CCN(CCn2c3c4ccccc4ccc3c3oc(=O)c4ccccc4c32)CC1
inactive: SR 1.5 µM | HCC 2998 1.87 µM | SF-295 4.21 µM | K562 1.44 µM | A549 3.97 µM | PC-3 2.03 µM | SNB-19 4.51 µM | OVCAR-4 2.26 µM | RPMI-8226 2.61 µM | SK-MEL-28 4.94 µM | HCT-116 1.88 µM | SW-620 1.86 µM | UO-31 2.19 µM | Malme-3M 15.1 µM | SN12C 1.51 µM | HT-29 1.36 µM | MDA-MB-231 1.8 µM | SK-MEL-2 13.5 µM | IGROV-1 13.2 µM

CC(C)NC(=O)OCc1c(COC(=O)NC(C)C)n(C)c2c1ccc1cc(Cl)c(Cl)cc12
inactive: SR 2.64 µM | SF-295 16.6 µM | K562 4.44 µM | A549 19.5 µM | PC-3 14.9 µM | SNB-19 13.4 µM | OVCAR-4 20.1 µM | RPMI-8226 10.3 µM | HCT-116 11.7 µM | BT-549 15.2 µM | SW-620 11.3 µM | UO-31 16.7 µM | Malme-3M 10.8 µM | HT-29 15.9 µM | MDA-MB-231 12.7 µM | SK-MEL-2 17.3 µM | IGROV-1 10.5 µM

CCOC(=O)C(C(=O)OCC)C1C=CCC2c3ccccc3COCC21 (stereo not drawn)
inactive: HCC 2998 52.5 µM | SF-295 43.6 µM | K562 41.9 µM | A549 66.5 µM | PC-3 42.6 µM | SNB-19 > 100 µM | OVCAR-4 28.6 µM | RPMI-8226 41.5 µM | SK-MEL-28 55.7 µM | HCT-116 41.1 µM | BT-549 49 µM | SW-620 52.7 µM | UO-31 43.9 µM | Malme-3M 31.7 µM | SN12C 79.6 µM | HT-29 54.7 µM | MDA-MB-231 > 100 µM | SK-MEL-2 41.4 µM | IGROV-1 75.5 µM

CC1=CC2=C(C#N)C(=O)OC2(C)C(c2ccccc2)C1 (stereo not drawn)
inactive: SF-295 > 100 µM | K562 68.7 µM | A549 > 100 µM | PC-3 68.5 µM | SNB-19 > 100 µM | OVCAR-4 87.7 µM | RPMI-8226 77.8 µM | SK-MEL-28 > 100 µM | HCT-116 > 100 µM | BT-549 > 100 µM | SW-620 > 100 µM | UO-31 > 100 µM | Malme-3M > 100 µM | SN12C > 100 µM | HT-29 > 100 µM | MDA-MB-231 > 100 µM | SK-MEL-2 > 100 µM | IGROV-1 6.04 µM

O=C(O)CC(C(=O)O)c1ccccc1[N+](=O)[O-] (stereo not drawn)
inactive: HCC 2998 > 100 µM | SF-295 > 100 µM | K562 > 100 µM | A549 > 100 µM | PC-3 > 100 µM | SNB-19 > 100 µM | OVCAR-4 > 100 µM | RPMI-8226 > 100 µM | SK-MEL-28 > 100 µM | HCT-116 > 100 µM | BT-549 > 100 µM | SW-620 > 100 µM | UO-31 2.62 µM | Malme-3M > 100 µM | SN12C > 100 µM | HT-29 > 100 µM | MDA-MB-231 > 100 µM | SK-MEL-2 > 100 µM | IGROV-1 > 100 µM

O=C1/C(=C\c2ccc([N+](=O)[O-])cc2)N(S(=O)(=O)c2ccccc2)c2ncccc21
inactive: SR 3.33 µM | SF-295 28.2 µM | K562 3.55 µM | A549 40.2 µM | PC-3 14 µM | SNB-19 24.5 µM | RPMI-8226 5.43 µM | SK-MEL-28 20.7 µM | HCT-116 18.2 µM | BT-549 18.3 µM | SW-620 14.9 µM | UO-31 19.3 µM | Malme-3M 18.2 µM | SN12C 16.9 µM | HT-29 16.6 µM | MDA-MB-231 16.1 µM | IGROV-1 18.3 µM

CCOC(=O)c1c(C)[nH]c2c1c(CN(C)C)c(O)c1nc(C)c(C)nc12
inactive: SR 16.5 µM | HCC 2998 21.4 µM | SF-295 20.2 µM | K562 21.3 µM | A549 22.4 µM | PC-3 19.5 µM | SNB-19 31.1 µM | OVCAR-4 27.2 µM | RPMI-8226 18.5 µM | SK-MEL-28 25 µM | HCT-116 17.2 µM | BT-549 26.2 µM | SW-620 24.4 µM | UO-31 29.5 µM | Malme-3M 18.5 µM | SN12C 12.6 µM | HT-29 21.6 µM | SK-MEL-2 20.4 µM | IGROV-1 24.2 µM

C[C@@H]1CC[C@]2(C(=O)O)CC[C@]3(C)C(=CC[C@@H]4[C@@]5(C)CC[C@H](O)C(C)(C)[C@@H]5CC[C@]43C)[C@@H]2[C@]1(C)O [POMOLIC ACID]
inactive: SR 13.9 µM | HCC 2998 15 µM | SF-295 3.22 µM | K562 6.49 µM | A549 17.2 µM | SNB-19 15.7 µM | OVCAR-4 16.8 µM | RPMI-8226 16.3 µM | SK-MEL-28 13.6 µM | HCT-116 12.2 µM | BT-549 14.4 µM | SW-620 21.9 µM | UO-31 11.3 µM | Malme-3M 12.3 µM | SN12C 13.6 µM | MDA-MB-231 8.79 µM | SK-MEL-2 17.1 µM | IGROV-1 16.5 µM
